Data as given in ChEMBL document CHEMBL3352358, “Discovery of 2-(cyclohexylmethylamino)pyrimidines as a new class of reversible valosine containing protein inhibitors” (J Med Chem, 2014).

What was measured:
[1] = target: Transitional endoplasmic reticulum ATPase (Homo sapiens, UniProt P55072); assay: biochemical; type: cell-based
Description: Inhibition of human full length VCP (2 to 806 residues) expressed in High5 insect cells assessed as reduction in ATPase activity by measuring ADP formation by NADH coupled assay

[2] = Inhibition of cell proliferation of human HCT116 cells after 72 hrs by thermostable firefly luciferase based assay; type: functional, HCT-116
[3] = Homo sapiens, HCT-116, 72 h, read-out: IC50

Chain of Transitional endoplasmic reticulum ATPase (P55072 whole entry): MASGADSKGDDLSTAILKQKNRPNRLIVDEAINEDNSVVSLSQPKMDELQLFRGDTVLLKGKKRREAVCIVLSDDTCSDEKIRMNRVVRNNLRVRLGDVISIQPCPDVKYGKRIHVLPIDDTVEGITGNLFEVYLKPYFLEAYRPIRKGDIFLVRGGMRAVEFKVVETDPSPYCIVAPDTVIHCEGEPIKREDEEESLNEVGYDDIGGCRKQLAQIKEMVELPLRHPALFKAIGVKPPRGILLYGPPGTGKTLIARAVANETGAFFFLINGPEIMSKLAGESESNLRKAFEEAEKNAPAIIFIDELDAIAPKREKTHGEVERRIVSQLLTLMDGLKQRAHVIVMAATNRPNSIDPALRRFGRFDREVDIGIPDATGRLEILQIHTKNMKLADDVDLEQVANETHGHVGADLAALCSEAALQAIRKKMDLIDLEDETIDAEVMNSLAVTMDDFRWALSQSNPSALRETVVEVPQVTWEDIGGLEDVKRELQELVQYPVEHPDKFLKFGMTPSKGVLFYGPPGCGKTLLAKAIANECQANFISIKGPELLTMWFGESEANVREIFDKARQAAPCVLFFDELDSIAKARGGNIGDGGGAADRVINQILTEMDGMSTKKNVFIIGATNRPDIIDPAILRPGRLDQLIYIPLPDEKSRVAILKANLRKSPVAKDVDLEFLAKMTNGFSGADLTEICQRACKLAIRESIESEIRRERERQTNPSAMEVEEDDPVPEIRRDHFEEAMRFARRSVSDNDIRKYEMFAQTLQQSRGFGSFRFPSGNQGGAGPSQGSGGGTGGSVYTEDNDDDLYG

| IC50 [1] [nM] | SMILES | IC50 [2, 3] [nM] | IC50 ([2]; hct-116) |
| --- | --- | --- | --- |
| 4800 | Cc1cc(-c2ccccc2)nc(SCc2ccc(C(=O)O)cc2)n1 | – | – |
| 21600 | Cc1cc(-c2ccccc2)nc(SCc2ccc(C(=O)NS(=O)(=O)C(F)(F)F)cc2)n1 | – | – |
| > 37000 | Cc1cc(-c2ccccc2)nc(SCc2ccccc2)n1 | – | – |
| > 37000 | Cc1cc(-c2ccccc2)nc(Sc2ccc(C(=O)O)cc2)n1 | – | – |
| > 37000 | Cc1cc(-c2ccccc2)nc(SCCC(=O)O)n1 | – | – |
| > 37000 | Cc1cc(-c2ccccc2)nc(S(=O)(=O)Cc2ccc(C(=O)O)cc2)n1 | – | – |
| 15400 | Cc1cc(-c2ccccc2)nc(NCc2ccc(C(=O)O)cc2)n1 | – | – |
| > 37000 | Cc1cc(-c2ccccc2C)nc(NC[C@H]2CC[C@H](C(=O)O)CC2)n1 | – | – |
| > 37000 | COc1cccc(-c2cc(C)nc(NC[C@H]3CC[C@H](C(=O)O)CC3)n2)c1 | – | – |
| 2600 | Cc1cc(-c2ccc(Cl)cc2)nc(NC[C@H]2CC[C@H](C(=O)O)CC2)n1 | – | – |
| 8400 | Cc1cc(-c2ccc(F)cc2)nc(NC[C@H]2CC[C@H](C(=O)O)CC2)n1 | – | – |
| > 37000 | COc1ccc(-c2cc(C)nc(NC[C@H]3CC[C@H](C(=O)O)CC3)n2)cc1 | – | – |
| 300 | O=C(O)[C@H]1CC[C@H](CNc2nc(-c3ccccc3)cc(-c3ccccc3)n2)CC1 | – | – |
| 141 | O=C(O)[C@H]1CC[C@H](CNc2nc(-c3ccccc3)cc(-c3ccccc3F)n2)CC1 | – | – |
| 3040 | COc1ccccc1-c1cc(-c2ccccc2)nc(NC[C@H]2CC[C@H](C(=O)O)CC2)n1 | – | – |
| 578 | Cc1cccc(-c2cc(-c3ccccc3)nc(NC[C@H]3CC[C@H](C(=O)O)CC3)n2)c1 | – | – |
| 552 | O=C(O)[C@H]1CC[C@H](CNc2nc(-c3ccccc3)cc(-c3cccc(F)c3)n2)CC1 | – | – |
| 116 | CS(=O)(=O)c1cccc(-c2cc(-c3ccccc3)nc(NC[C@H]3CC[C@H](C(=O)O)CC3)n2)c1 | – | – |
| 201 | O=C(O)[C@H]1CC[C@H](CNc2nc(-c3ccccc3)cc(-c3cccc([N+](=O)[O-])c3)n2)CC1 | – | – |
| 577 | Cc1ccc(-c2cc(-c3ccccc3)nc(NC[C@H]3CC[C@H](C(=O)O)CC3)n2)cc1 | – | – |
| 221 | O=C(O)[C@H]1CC[C@H](CNc2nc(-c3ccccc3)cc(-c3ccc(Cl)cc3)n2)CC1 | – | – |
| 921 | COc1ccc(-c2cc(-c3ccccc3)nc(NC[C@H]3CC[C@H](C(=O)O)CC3)n2)cc1 | – | – |
| 1090 | CS(=O)(=O)c1ccc(-c2cc(-c3ccccc3)nc(NC[C@H]3CC[C@H](C(=O)O)CC3)n2)cc1 | – | – |
| 112 | Nc1ccc(-c2cc(-c3ccccc3)nc(NC[C@H]3CC[C@H](C(=O)O)CC3)n2)cc1 | – | – |
| 150 | O=C(O)[C@H]1CC[C@H](CNc2nc(-c3ccccc3)cc(-c3ccc4[nH]ccc4c3)n2)CC1 | – | – |
| 570 | O=C(O)[C@H]1CC[C@H](CNc2nc(-c3ccccc3)cc(-c3ccco3)n2)CC1 | – | – |

| IC50 [1] [nM] | SMILES | IC50 [2, 3] [nM] | IC50 ([2]; hct-116) |
| --- | --- | --- | --- |
| 1200 | O=C(O)[C@H]1CC[C@H](CNc2nc(-c3ccccc3)cc(-c3cccnc3)n2)CC1 | – | – |
| 2190 | O=C(O)[C@H]1CC[C@H](CNc2nc(-c3ccccc3)cc(-c3ccoc3)n2)CC1 | – | – |
| 4310 | O=C(O)[C@H]1CC[C@H](CNc2nc(NC3CCCCC3)cc(-c3ccccc3)n2)CC1 | – | – |
| 1690 | NC(=O)[C@H]1CC[C@H](CNc2nc(NCc3ccccc3F)cc(-c3ccccc3)n2)CC1 | – | – |
| 1680 | Cc1cccc(CNc2cc(-c3ccccc3)nc(NC[C@H]3CC[C@H](C(N)=O)CC3)n2)c1 | – | – |
| 5640 | COc1cccc(CNc2cc(-c3ccccc3)nc(NC[C@H]3CC[C@H](C(N)=O)CC3)n2)c1 | – | – |
| 7610 | NC(=O)[C@H]1CC[C@H](CNc2nc(NCc3cccc(S(N)(=O)=O)c3)cc(-c3ccccc3)n2)CC1 | – | – |
| 2180 | Cc1ccc(CNc2cc(-c3ccccc3)nc(NC[C@H]3CC[C@H](C(N)=O)CC3)n2)cc1 | – | – |
| 2430 | NC(=O)[C@H]1CC[C@H](CNc2nc(NCc3ccc(F)cc3)cc(-c3ccccc3)n2)CC1 | – | – |
| 5040 | COc1ccc(CNc2cc(-c3ccccc3)nc(NC[C@H]3CC[C@H](C(N)=O)CC3)n2)cc1 | – | – |
| 5170 | NC(=O)[C@H]1CC[C@H](CNc2nc(NCc3ccc(S(N)(=O)=O)cc3)cc(-c3ccccc3)n2)CC1 | – | – |
| 87 | CC(=O)c1cccc(-c2cc(NCc3ccccc3)nc(NC[C@H]3CC[C@H](C(N)=O)CC3)n2)c1 | 6550 | – |
| 106 | NC(=O)[C@H]1CC[C@H](CNc2nc(NCc3ccccc3)cc(-c3cccc(O)c3)n2)CC1 | > 10000 | – |
| 135 | NC(=O)[C@H]1CC[C@H](CNc2nc(NCc3ccccc3)cc(-c3cccc(CO)c3)n2)CC1 | > 10000 | – |
| 183 | Cc1cccc(-c2cc(NCc3ccccc3)nc(NC[C@H]3CC[C@H](C(N)=O)CC3)n2)c1 | 4160 | – |
| 237 | NC(=O)[C@H]1CC[C@H](CNc2nc(NCc3ccccc3)cc(-c3cccc(C(F)(F)F)c3)n2)CC1 | 7970 | – |
| 59 | CC(=O)Nc1ccc(-c2cc(NCc3ccccc3)nc(NC[C@H]3CC[C@H](C(N)=O)CC3)n2)cc1 | 4310 | – |
| 102 | CC(=O)c1ccc(-c2cc(NCc3ccccc3)nc(NC[C@H]3CC[C@H](C(N)=O)CC3)n2)cc1 | > 10000 | – |
| 106 | NC(=O)[C@H]1CC[C@H](CNc2nc(NCc3ccccc3)cc(-c3ccc(Cl)cc3)n2)CC1 | 7320 | – |
| 246 | CCOc1ccc(-c2cc(NCc3ccccc3)nc(NC[C@H]3CC[C@H](C(N)=O)CC3)n2)cc1 | 2230 | – |
| 61 | NC(=O)[C@H]1CC[C@H](CNc2nc(NCc3ccccc3)cc(-c3cc4ccccc4o3)n2)CC1 | 4640 | – |
| 71 | NC(=O)[C@H]1CC[C@H](CNc2nc(NCc3ccccc3)cc(-c3ccc4[nH]ncc4c3)n2)CC1 | 5720 | – |
| 74 | NC(=O)[C@H]1CC[C@H](CNc2nc(NCc3ccccc3)cc(-c3csc4ccccc34)n2)CC1 | 5820 | – |
| 82 | NC(=O)[C@H]1CC[C@H](CNc2nc(NCc3ccccc3)cc(-c3ccc4[nH]ccc4c3)n2)CC1 | 5640 | – |
| 109 | NC(=O)[C@H]1CC[C@H](CNc2nc(NCc3ccccc3)cc(-c3cccnc3)n2)CC1 | > 10000 | – |

The next lines start with the compound.

| SMILES | IC50 [1] [nM] | IC50 [2, 3] [nM] | IC50 ([2]; hct-116) |
| --- | --- | --- | --- |
| COc1cccc(-c2cc(NCc3ccccc3)nc(NC[C@H]3CC[C@H](C(N)=O)CC3)n2)c1 | 149 | 6660 | – |
| Cc1cc(-c2ccccc2)nc(SCCc2ccc(C(=O)O)cc2)n1 | 20500 | – | – |
| Cc1cc(-c2ccccc2)nc(NCc2cccc(C(=O)O)c2)n1 | > 37000 | – | – |
| Cc1cc(-c2ccccc2)nc(NC[C@H]2CC[C@H](C(=O)O)CC2)n1 | 2600 | – | – |
| O=C(O)[C@H]1CC[C@H](CNc2nccc(-c3ccccc3)n2)CC1 | 8700 | – | – |
| COc1ccccc1-c1cc(C)nc(NC[C@H]2CC[C@H](C(=O)O)CC2)n1 | > 37000 | – | – |
| Cc1cccc(-c2cc(C)nc(NC[C@H]3CC[C@H](C(=O)O)CC3)n2)c1 | 11400 | – | – |
| Cc1cc(-c2cccc(Cl)c2)nc(NC[C@H]2CC[C@H](C(=O)O)CC2)n1 | 4800 | – | – |
| Cc1ccc(-c2cc(C)nc(NC[C@H]3CC[C@H](C(=O)O)CC3)n2)cc1 | 2700 | – | – |
| Cc1ccccc1-c1cc(-c2ccccc2)nc(NC[C@H]2CC[C@H](C(=O)O)CC2)n1 | 673 | – | – |
| O=C(O)[C@H]1CC[C@H](CNc2nc(-c3ccccc3)cc(-c3ccccc3Cl)n2)CC1 | 700 | – | – |
| O=C(O)[C@H]1CC[C@H](CNc2nc(-c3ccccc3)cc(-c3cccc(Cl)c3)n2)CC1 | 483 | – | – |
| COc1cccc(-c2cc(-c3ccccc3)nc(NC[C@H]3CC[C@H](C(=O)O)CC3)n2)c1 | 543 | – | – |
| [N-]=[N+]=Nc1cccc(-c2cc(-c3ccccc3)nc(NC[C@H]3CC[C@H](C(=O)O)CC3)n2)c1 | 879 | – | – |
| O=C(O)[C@H]1CC[C@H](CNc2nc(-c3ccccc3)cc(-c3ccc(F)cc3)n2)CC1 | 742 | – | – |
| O=C(O)[C@H]1CC[C@H](CNc2nc(-c3ccccc3)cc(-c3ccc([N+](=O)[O-])cc3)n2)CC1 | 2190 | – | – |
| Nc1ccc(-c2cc(-c3ccccc3)nc(NC[C@H]3CC[C@H](C(=O)O)CC3)n2)cc1[N+](=O)[O-] | 60 | – | – |
| O=C(O)[C@H]1CC[C@H](CNc2nc(-c3ccccc3)cc(-c3ccncc3)n2)CC1 | 1670 | – | – |

| SMILES | IC50 [1] [nM] | IC50 [2, 3] [nM] | IC50 ([2]; hct-116) |
| --- | --- | --- | --- |
| O=C(O)[C@H]1CC[C@H](CNc2nc(Nc3ccccc3)cc(-c3ccccc3)n2)CC1 | 36 | – | – |
| O=C(O)[C@H]1CC[C@H](CNc2nc(-c3ccccc3)cc(N3CCOCC3)n2)CC1 | > 10000 | – | – |
| Cc1ccccc1CNc1cc(-c2ccccc2)nc(NC[C@H]2CC[C@H](C(N)=O)CC2)n1 | 9290 | – | – |
| NC(=O)[C@H]1CC[C@H](CNc2nc(NCc3ccccc3Cl)cc(-c3ccccc3)n2)CC1 | 6940 | – | – |
| NC(=O)[C@H]1CC[C@H](CNc2nc(NCc3ccccc3Br)cc(-c3ccccc3)n2)CC1 | 7110 | – | – |
| COc1ccccc1CNc1cc(-c2ccccc2)nc(NC[C@H]2CC[C@H](C(N)=O)CC2)n1 | 8860 | – | – |
| NC(=O)[C@H]1CC[C@H](CNc2nc(NCc3cccc(F)c3)cc(-c3ccccc3)n2)CC1 | 474 | – | – |
| NC(=O)[C@H]1CC[C@H](CNc2nc(NCc3cccc(Cl)c3)cc(-c3ccccc3)n2)CC1 | 2760 | – | – |
| NC(=O)[C@H]1CC[C@H](CNc2nc(NCc3cccc([N+](=O)[O-])c3)cc(-c3ccccc3)n2)CC1 | 4610 | – | – |
| NC(=O)[C@H]1CC[C@H](CNc2nc(NCc3ccc(Cl)cc3)cc(-c3ccccc3)n2)CC1 | 3470 | – | – |
| CS(=O)(=O)c1ccc(CNc2cc(-c3ccccc3)nc(NC[C@H]3CC[C@H](C(N)=O)CC3)n2)cc1 | > 10000 | – | – |
| NC(=O)[C@H]1CC[C@H](CNc2nc(NCc3ccccc3)cc(-c3ccc(CO)cc3)n2)CC1 | 89 | 7890 | – |
| NC(=O)[C@H]1CC[C@H](CNc2nc(NCc3ccccc3)cc(-c3ccc(C(F)(F)F)cc3)n2)CC1 | 222 | 7610 | – |
| NC(=O)[C@H]1CC[C@H](CNc2nc(NCc3ccccc3)cc(-c3ccc(F)cc3)n2)CC1 | 299 | > 10000 | – |
| NC(=O)[C@H]1CC[C@H](CNc2nc(NCc3ccccc3)cc(-c3ccsc3)n2)CC1 | 452 | 7410 | – |
| NC(=O)[C@H]1CC[C@H](CNc2nc(NCc3ccccc3)cc(-c3ccoc3)n2)CC1 | 491 | 8750 | – |
| COC(=O)[C@H]1CC[C@H](CNc2nc(NCc3ccccc3)cc(-c3ccccc3)n2)CC1 | – | – | Not Active |
